Reference: patent publication US5770573A, “CS-1 peptidomimetics, compositions and methods of using the same” (Cytel Corporation, priority 1995, dated 1998)
Square brackets hold non-standard residues; d marks the D form. Peptide text beside a SMILES is read from it. * marks the point of attachment. Quinoline3carbonyl = O=C(c1cnc2ccccc2c1)*; Acetyl(3-pyridyl) = O=C(Cc1cccnc1)*; Quinaldoyl = O=C(c1ccc2ccccc2n1)*; Cya = N[C@@H](CS(=O)(=O)O)C(=O)O; Cha = N[C@@H](CC1CCCCC1)C(=O)O; NMeD = CN[C@@H](CC(=O)O)C(=O)O; Phg = N[C@H](C(=O)O)c1ccccc1; NMeV = CN[C@H](C(=O)O)C(C)C; X8 = CCCCCCCCCCCCCCCCCCO*; Nle = CCCC[C@H](N)C(=O)O; Piperidide = C1CCN(*)CC1; PhAc = O=C(Cc1ccccc1)*; X1 = CCCCCCCCCCCCCCO*; Inp = O=C(O)C1CCNCC1; Bz = O=C(c1ccccc1)*; X5 = CCCCCCCCCCCCO*; OtBu = CC(C)(C)O*

Molecular target: VLA-4 (Homo sapiens, UniProt P05556+P13612)
Sequence (P13612 34-1032): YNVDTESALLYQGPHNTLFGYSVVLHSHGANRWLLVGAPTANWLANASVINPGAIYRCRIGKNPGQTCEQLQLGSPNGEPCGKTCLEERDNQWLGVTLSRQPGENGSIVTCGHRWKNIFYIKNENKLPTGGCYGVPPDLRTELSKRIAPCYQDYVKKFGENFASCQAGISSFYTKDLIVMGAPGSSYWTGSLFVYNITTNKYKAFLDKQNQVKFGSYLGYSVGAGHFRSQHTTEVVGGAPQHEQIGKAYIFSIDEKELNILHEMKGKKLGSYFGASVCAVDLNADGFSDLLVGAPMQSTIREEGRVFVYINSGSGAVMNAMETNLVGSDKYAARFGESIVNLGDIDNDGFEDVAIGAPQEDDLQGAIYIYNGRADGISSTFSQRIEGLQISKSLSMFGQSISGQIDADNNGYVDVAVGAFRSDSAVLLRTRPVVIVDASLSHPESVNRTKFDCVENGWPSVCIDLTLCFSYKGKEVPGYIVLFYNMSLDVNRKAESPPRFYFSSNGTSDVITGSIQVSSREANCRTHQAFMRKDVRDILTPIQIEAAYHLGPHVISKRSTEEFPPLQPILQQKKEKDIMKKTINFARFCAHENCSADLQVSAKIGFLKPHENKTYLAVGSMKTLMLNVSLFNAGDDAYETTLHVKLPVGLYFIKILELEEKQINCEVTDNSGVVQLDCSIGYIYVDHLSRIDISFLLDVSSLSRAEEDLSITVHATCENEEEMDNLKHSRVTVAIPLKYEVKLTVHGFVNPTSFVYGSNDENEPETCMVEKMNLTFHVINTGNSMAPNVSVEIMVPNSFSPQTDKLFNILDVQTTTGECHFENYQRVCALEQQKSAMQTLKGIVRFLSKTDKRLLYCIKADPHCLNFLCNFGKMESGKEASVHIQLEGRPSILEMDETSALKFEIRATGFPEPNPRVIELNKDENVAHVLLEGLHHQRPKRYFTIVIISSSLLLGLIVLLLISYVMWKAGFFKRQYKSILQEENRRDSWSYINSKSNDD
Sequence (P05556 21-798): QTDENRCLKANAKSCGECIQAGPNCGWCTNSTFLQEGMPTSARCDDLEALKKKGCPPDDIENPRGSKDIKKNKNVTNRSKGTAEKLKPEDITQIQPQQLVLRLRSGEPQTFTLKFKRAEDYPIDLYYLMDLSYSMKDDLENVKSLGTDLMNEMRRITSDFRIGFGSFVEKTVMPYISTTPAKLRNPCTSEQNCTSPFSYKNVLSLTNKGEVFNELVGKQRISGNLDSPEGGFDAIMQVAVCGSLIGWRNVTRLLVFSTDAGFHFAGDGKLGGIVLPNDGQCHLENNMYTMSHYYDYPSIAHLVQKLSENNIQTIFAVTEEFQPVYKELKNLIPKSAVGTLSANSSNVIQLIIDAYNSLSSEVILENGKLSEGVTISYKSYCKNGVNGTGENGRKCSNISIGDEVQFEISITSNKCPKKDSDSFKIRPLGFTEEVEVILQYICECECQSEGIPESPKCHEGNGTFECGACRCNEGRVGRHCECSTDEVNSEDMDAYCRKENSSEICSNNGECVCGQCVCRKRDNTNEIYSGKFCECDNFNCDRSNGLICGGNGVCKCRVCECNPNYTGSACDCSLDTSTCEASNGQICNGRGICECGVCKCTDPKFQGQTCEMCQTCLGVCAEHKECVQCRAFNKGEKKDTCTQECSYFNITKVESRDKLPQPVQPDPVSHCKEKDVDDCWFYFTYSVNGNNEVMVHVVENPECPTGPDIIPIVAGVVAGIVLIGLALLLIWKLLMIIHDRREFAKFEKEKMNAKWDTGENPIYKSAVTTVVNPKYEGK
Assay: In vitro binding inhibition of 51Cr-labeled Jurkat cells to solid phase-bound CS-1 compound (SEQ ID NO:1)
Type: cell-based
Parameters: inflammatory cells that contain the VLA-4 receptor [Jurkat cells; host or cells: Jurkat (human T lymphoblastic line)
Settings: not given
In short: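 51Cr-labeled human Jurkat cells were preincubated with compound 30 min at about 22° C, then allowed to bind to wells coated with CS-1 peptide or CS-1-OVA for 30 min at 37° C. After washing, bound cells were lysed with SDS and counted. IC50 is the concentration halving binding, normalized to SEQ ID NO: 3.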

| Relative Potency | SMILES |
| --- | --- |
| 0 | CC[C@H](C)[C@H](N)C(=O)N[C@@H](CC(C)C)C(=O)N[C@@H](CC(=O)O)C(=O)N(C)[C@H](C(=O)N1CCC[C@H]1C(N)=O)C(C)C [926.18] (H-ILD[NMeV]P-NH2) |
| 1.38 | CC(C)C[C@H](NC(=O)C12CC3CC(CC(C3)C1)C2)C(=O)N[C@@H](CC(=O)O)C(=O)N[C@H](C(=O)N1CCC[C@@H]1C(N)=O)C(C)C [896.50] |
| 387 | CC(C)C[C@H](NC(=O)Cc1cccnc1)C(=O)N[C@@H](CC(=O)O)C(=O)N[C@@H](Cc1ccccc1)C(=O)N1CCC[C@@H]1C(N)=O [951.22] ({Acetyl(3-pyridyl)}-LDF[dP]-NH2) |
| .2 | NC(=O)[C@H]1CCCN1C(=O)[C@H](Cc1ccccc1)NC(=O)[C@H](CC(=O)O)NC(=O)CCCCc1ccccc1 [1056.04] |
| 6.57 | CCC(C)CC(=O)N[C@@H](CC(C)C)C(=O)N[C@@H](CC(=O)O)C(=O)N[C@H](C(=O)N1CCC[C@@H]1C(N)=O)C(C)C (stereo partly drawn) [896.46] |
| 1.41 | CC[C@H](C)[C@H](N)C(=O)N[C@@H](CC1CCCCC1)C(=O)N[C@@H](CC(=O)O)C(=O)N[C@H](C(=O)N1CCC[C@@H]1C(N)=O)C(C)C [896.32] (H-I[Cha]DV[dP]-NH2) |
| 0 | NC(=O)[C@H]1CCCN1C(=O)[C@H](Cc1ccccc1)NC(=O)[C@H](CC(=O)O)NC(=O)CCCCC[N+](=O)[O-] [1056.11] |
| 1.75 | CC(C)C[C@H](NC(=O)CCC1CCCCC1)C(=O)N[C@@H](CC(=O)O)C(=O)N[C@H](C(=O)N1CCC[C@@H]1C(N)=O)C(C)C [896.45] |
| .3 | CC[C@H](C)[C@H](N)C(=O)N[C@@H](CC(C)C)C(=O)N[C@@H](CC(=O)O)C(=O)N[C@@H](CCSC)C(=O)N1CCC[C@H]1C(N)=O [926.13] (H-ILDMP-NH2) |
| .08 | CCCC[C@H](NC(=O)[C@H](CC(=O)O)NC(=O)[C@H](CC(C)C)NC(=O)[C@@H](N)[C@@H](C)CC)C(=O)N1CCC[C@H]1C(N)=O [926.15] (H-ILD[Nle]P-NH2) |
| 0 | NC(=O)[C@H]1CCCN1C(=O)[C@H](Cc1ccccc1)NC(=O)[C@H](CC(=O)O)NC(=O)c1cc2cc(O)ccc2cc1O [1056.05] |
| 13 | CC(C)C[C@H](NC(=O)c1ccccn1)C(=O)N[C@@H](CC(=O)O)C(=O)N[C@H](C(=O)N1CCC[C@@H]1C(N)=O)C(C)C [896.54] |
| 3.13 | Cc1cccc(C)c1C(=O)N[C@@H](CC(C)C)C(=O)N[C@@H](CC(=O)O)C(=O)N[C@H](C(=O)N1CCC[C@@H]1C(N)=O)C(C)C [896.36] |
| .47 | CC[C@H](C)[C@H](N)C(=O)N[C@@H](CC1CCCCC1)C(=O)N[C@@H](CC(=O)O)C(=O)N[C@H](C(=O)N1CCC[C@H]1C(N)=O)C(C)C [926.08] (H-I[Cha]DVP-NH2) |
| 56.3 | CC(C)C[C@H](NC(=O)c1cnc2ccccc2c1)C(=O)N[C@@H](CC(=O)O)C(=O)N[C@@H](Cc1ccccc1)C(=O)N1CCC[C@@H]1C(N)=O [951.05] (Quinoline3carbonyl-LDF[dP]-NH2) |

| SMILES | Relative Potency |
| --- | --- |
| CC(C)C[C@H](NC(=O)c1ccc2ccccc2n1)C(=O)N[C@@H](CC(=O)O)C(=O)N[C@@H](Cc1ccccc1)C(=O)N1CCC[C@@H]1C(N)=O [951.06] (Quinaldoyl-LDF[dP]-NH2) | 8.97 |
| CC(C)C[C@@H](C(=O)N1C(=O)N([C@@H](Cc2ccccc2)C(=O)N2CCCCC2)C(=O)[C@@H]1CC(=O)O)N1C(=O)c2ccccc2C1=O [1047.03] | 0 |

Same assay, conditions: binding inhibition potency relative to standard compound of SEQ ID NO:3 = 1 (normalized IC50); about one-tenth or less assigned zero

| SMILES | Relative Potency |
| --- | --- |
| CC(C)C[C@H](NC(=O)Cc1ccccc1)C(=O)N[C@@H](CC(=O)O)C(=O)N[C@H](C(=O)N1CCC[C@@H]1C(N)=O)c1ccccc1 [896.69] (PhAc-LD[Phg][dP]-NH2) | 61 |
| CC(C)C[C@H](NC(=O)Cc1ccccc1)C(=O)N[C@@H](CC(=O)O)C(=O)N[C@@H](CO)C(=O)N1CCC[C@@H]1C(N)=O [896.72] (PhAc-LDS[dP]-NH2) | 16.9 |
| NC(=O)[C@H]1CCCN1C(=O)[C@H](Cc1ccccc1)NC(=O)[C@H](CC(=O)O)NC(=O)[C@H](CC1CCCCC1)NC(=O)c1ccccc1 [896.31] (Bz-[Cha]DF[dP]-NH2) | 11 |
| CC(C)C[C@H](NC(=O)c1ccccc1)C(=O)N[C@@H](CC(=O)O)C(=O)N[C@H](C(=O)N1CCC[C@H]1C(N)=O)C(C)C [896.35] | 16 |
| CC(C)C[C@@H](CN[C@@H](CC(=O)O)C(=O)N[C@@H](Cc1ccccc1)C(=O)N1CCCCC1)NC(=O)Cc1ccccc1 [1041.01] | 0 |
| CC(C)C[C@H](NC(=O)Cc1ccccc1)C(=O)N[C@@H](CC(=O)O)C(=O)N[C@@H](Cc1c[nH]c2ccccc12)C(=O)N1CCC[C@@H]1C(N)=O [896.60] (PhAc-LDW[dP]-NH2) | 131 |
| CC(C)C[C@H](NC(=O)Cc1ccccc1)C(=O)N[C@@H](CC(=O)O)C(=O)N[C@H]1Cc2ccccc2[C@H]2CCCCN2C1=O [1026.05] | 50.1 |
| CC(C)C[C@H](NC(=O)Cc1ccccc1)C(=O)N[C@@H](CC(=O)O)C(=O)N[C@@H]1CCN(C2CCCCC2)C1=O [1057.03] | 3.44 |
| CC(C)C[C@H](NC(=O)Cc1ccccc1)C(=O)N[C@@H](CC(=O)O)C(=O)NC1Cc2ccccc2N(CC(C)C)C1=O (stereo partly drawn) [997.10] | 6.26 |
| CC(C)C[C@H](NC(=O)Cc1ccccc1)C(=O)N[C@@H](CC(=O)O)C(=O)N[C@@H](Cc1ccc(O)cc1)C(=O)N1CCC[C@H]1C(N)=O [1036.01] (PhAc-LDYP-NH2) | 405 |
| CC(C)C[C@H](NC(=O)Cc1ccccc1)C(=O)N[C@@H](CC(=O)O)C(=O)N[C@@H](Cc1ccccc1)C(=O)N1CCC(C(N)=O)CC1 [1111.05] (PhAc-LDF[Inp]-NH2) | 942 |
| CC(C)C[C@H](NC(=O)Cc1ccccc1)C(=O)N[C@@H](CS)C(=O)N[C@@H](Cc1ccccc1)C(=O)N1CCC[C@@H]1C(N)=O [896.59] (PhAc-LCF[dP]-NH2) | 0 |
| CC(C)C[C@H](NC(=O)Cc1ccccc1)C(=O)N[C@@H](CS(N)(=O)=O)C(=O)N[C@@H](Cc1ccccc1)C(=O)N1CCCCC1 [1026.08] | 0 |
| CCCC[C@H](NC(=O)Cc1ccccc1)C(=O)N[C@@H](CC(=O)O)C(=O)N[C@@H](Cc1ccccc1)C(=O)N1CCC[C@@H]1C(N)=O [1160.02] (PhAc-[Nle]DF[dP]-NH2) | 49 |
| CC(=O)N[C@@H](CC(C)C)C(=O)N[C@@H](CC(=O)O)C(=O)N[C@H](C(N)=O)C(C)C [926.30] (Ac-Leu-Asp-Val-NH2) | .63 |
| CC(C)C[C@H](NC(=O)Cc1ccccc1)C(=O)N[C@@H](CS(=O)(=O)O)C(=O)N[C@@H](Cc1ccccc1)C(=O)N1CCCCC1 [1026.06] (PhAc-Leu-[Cya]-Phe-Piperidide) | 0 |
| CC(C)C[C@H](NC(=O)Cc1ccccc1)C(=O)N[C@@H](CC(=O)O)C(=O)N[C@@H](Cc1ccccc1)C(N)=O [997.12] (PhAc-Leu-Asp-Phe-NH2) | .45 |
| CC(C)C[C@H](NC(=O)Cc1ccccc1)C(=O)N[C@@H](CC(=O)O)C(=O)N[C@@H](Cc1ccccc1)C(=O)N1CCCCC1 [951.14] (PhAc-Leu-Asp-Phe-Piperidide) | 239 |
| CC(C)C[C@H](NC(=O)Cc1ccccc1)C(=O)N[C@@H](CC(=O)O)C(=O)NC(c1ccccc1)c1ccccc1 [997.01] | 2.66 |
| CC(C)C[C@H](NC(=O)Cc1ccccc1)C(=O)N[C@@H](CC(=O)O)C(=O)N1C(=O)N(Cc2ccccc2)C(=O)[C@H]1Cc1ccccc1 [1047.07] | .38 |
| CC(C)C[C@H](NC(=O)Cc1ccccc1)C(=O)N[C@@H](CC(=O)O)C(=O)N[C@@H](Cc1ccccc1)C(=O)NCCCO [1051.05] | 25 |
| NC(=O)[C@H]1CCCN1C(=O)[C@H](Cc1ccccc1)NC(=O)[C@H](CC(=O)O)NC(=O)CCCCC1CCSS1 (stereo partly drawn) [1056.09] | 1.1 |
| CC(C)C[C@H](NC(=O)/C=C/c1ccccc1)C(=O)N[C@@H](CC(=O)O)C(=O)N[C@H](C(=O)N1CCC[C@@H]1C(N)=O)C(C)C [896.41] | 1.97 |
| CC(C)C[C@H](NC(=O)Cc1ccccc1)C(=O)N[C@@H](CC(=O)O)C(=O)N[C@@H](Cc1ccccc1)C(=O)N1CCN(CCOCCO)CC1 [1111.07] | 510 |
| CC(C)C[C@H](NC(=O)Cc1ccccc1)C(=O)N(C)[C@@H](CC(=O)O)C(=O)N[C@@H](Cc1ccccc1)C(=O)N1CCC[C@@H]1C(N)=O [1190.06] (PhAc-L[NMeD]F[dP]-NH2) | 0 |
| CC(C)C[C@H](NC(=O)Cc1ccccc1)C(=O)N[C@@H](CC(=O)O)C(=O)NNC(=O)OC(C)(C)C [997.13] | 1.57 |
| CC(C)C[C@H](NC(=O)Cc1ccccc1)C(=O)N[C@@H](CC(=O)O)C(=O)N[C@@H](Cc1ccc(O)cc1)C(=O)OC(C)(C)C [1040.02] (PhAc-Leu-Asp-Tyr-OtBu) | 14.7 |

Same assay, conditions: relative to SEQ ID NO:3 = 1; potency before the prodrug compound is enzymatically converted to an active form

| SMILES | Relative Potency (prodrug compound) |
| --- | --- |
| CCCCCCCCCCCCCCOC(=O)C[C@H](NC(=O)[C@H](CC(C)C)NC(=O)Cc1ccccc1)C(=O)N[C@@H](Cc1ccccc1)C(=O)N1CCC[C@@H]1C(N)=O [1068.11] (PhAc-LD(X1)F[dP]-NH2) | 0 |
| CCCCCCCCCCCCCCCCCCOC(=O)C[C@H](NC(=O)[C@H](CC(C)C)NC(=O)Cc1ccccc1)C(=O)N[C@@H](Cc1ccccc1)C(=O)N1CCC[C@@H]1C(N)=O [1068.12] (PhAc-LD(X8)F[dP]-NH2) | 0 |
| CCCCCCCCCCCCOC(=O)C[C@H](NC(=O)[C@H](CC(C)C)NC(=O)Cc1ccccc1)C(=O)N[C@@H](Cc1ccccc1)C(=O)N1CCC[C@@H]1C(N)=O [1068.10] (PhAc-LD(X5)F[dP]-NH2) | 0 |
| CCCCCCCCCCCCCCCCCC(=O)OC1CCN(C(=O)[C@H](Cc2ccccc2)NC(=O)[C@H](CC(=O)O)NC(=O)[C@H](CC(C)C)NC(=O)Cc2ccccc2)CC1 [1068.05] | .63 |
